ChEMBL document CHEMBL1201862, “PubChem BioAssay data set” (2004)
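All cell lines were grown in 96-well plates and treated with compound for 48 hours. The concentration for 50% growth inhibition is given as GI50.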 Active and inactive are the calls of the source. Rule as the data show it: active = GI50 up to about 1.1 µM and inactive = higher.

What was measured:
Assay in all cases: NCI anticancer screen, dose series, 48 h
[1] = test system: HCT-116
[2] = test system: BT-549
[3] = test system: TK-10
[4] = test system: HL-60
[5] = test system: SK-MEL-28
[6] = test system: T47D
[7] = test system: ACHN
[8] = test system: SK-MEL-2
[9] = test system: MOLT-4
[10] = test system: CAKI-1
[11] = test system: PC-3
[12] = test system: 786-0
[13] = test system: SF-295
[14] = test system: RXF 393
[15] = test system: SR
[16] = test system: SK-MEL-5
[17] = test system: M14
[18] = test system: DU-145
[19] = test system: HOP-92
[20] = test system: MDA-MB-231

SMILES | GI50 [1] | GI50 [2] | GI50 [3] | GI50 [4] | GI50 [5] | GI50 [6] | GI50 [7] | GI50 [8] | GI50 [9] | GI50 [10] | GI50 [11] | GI50 [12] | GI50 [13] | GI50 [14] | GI50 [15] | GI50 [16] | GI50 [17] | GI50 [18] | GI50 [19] | GI50 [20]
C[C@]12CC[C@H](O)C[C@H]1CC[C@@H]1[C@@H]2CC[C@]2(C)[C@@H](C3=CC(=O)OC3)CC[C@]12O [DIGITOXIGENIN] | 0.0251 µM (active) | 0.0372 µM (active) | 0.0944 µM (active) | 0.0524 µM (active) | 0.569 µM (active) | 0.292 µM (active) | < 0.0125 µM (active) | 0.321 µM (active) | < 0.01 µM (active) | 0.0357 µM (active) | 0.149 µM (active) | 0.0447 µM (active) | 0.0473 µM (active) | 0.0144 µM (active) | 0.0531 µM (active) | 0.0447 µM (active) | 0.226 µM (active) | 0.04 µM (active) | 0.188 µM (active) | 0.774 µM (active)
CCCN1C(=O)CCC2=C1CCc1c2ccc(Cl)c1Cl | 27.7 µM (inactive) | 64.4 µM (inactive) | 11.9 µM (inactive) | 15.8 µM (inactive) | 92 µM (inactive) | 36.7 µM (inactive) | 24.3 µM (inactive) | 13.5 µM (inactive) | 26.2 µM (inactive) | 31.6 µM (inactive) | 27.3 µM (inactive) | 31.9 µM (inactive) | 27 µM (inactive) | 17.9 µM (inactive) | 31.8 µM (inactive) | 15.4 µM (inactive) | 31.9 µM (inactive) | 5.19 µM (inactive) | 21.8 µM (inactive) | 16.8 µM (inactive)
Cc1cccc(C(=O)O)c1CC1NCCC2c3ccccc3NC12 (stereo not given) | > 100 µM (inactive) | > 100 µM (inactive) | > 100 µM (inactive) | > 100 µM (inactive) | > 100 µM (inactive) | > 100 µM (inactive) | > 100 µM (inactive) | > 100 µM (inactive) | > 100 µM (inactive) | > 100 µM (inactive) | > 100 µM (inactive) | > 100 µM (inactive) | > 100 µM (inactive) | > 100 µM (inactive) | > 100 µM (inactive) | > 100 µM (inactive) | > 100 µM (inactive) | > 100 µM (inactive) | > 100 µM (inactive) | > 100 µM (inactive)
Cn1nc(-c2ccccc2)nc1[N+](=O)[O-] | > 10 µM (inactive) | > 10 µM (inactive) | > 10 µM (inactive) | > 10 µM (inactive) | > 10 µM (inactive) | > 10 µM (inactive) | > 10 µM (inactive) | > 10 µM (inactive) | > 10 µM (inactive) | > 10 µM (inactive) | > 10 µM (inactive) | > 10 µM (inactive) | > 10 µM (inactive) | > 10 µM (inactive) | > 10 µM (inactive) | > 10 µM (inactive) | > 10 µM (inactive) | > 10 µM (inactive) | > 10 µM (inactive) | > 10 µM (inactive)
N#Cc1c(-c2ccccc2)c2c([nH]c1=O)-c1cc([N+](=O)[O-])ccc1CCC2 | 30.3 µM (inactive) | 17.4 µM (inactive) | 44.4 µM (inactive) | 35.2 µM (inactive) | 29.8 µM (inactive) | 19.3 µM (inactive) | 24.8 µM (inactive) | 25.2 µM (inactive) | 25 µM (inactive) | 41.3 µM (inactive) | 39.7 µM (inactive) | 43.2 µM (inactive) | 18.9 µM (inactive) | 12.1 µM (inactive) | 28.8 µM (inactive) | 27.9 µM (inactive) | 33.1 µM (inactive) | 25.5 µM (inactive) | 16.4 µM (inactive) | 51.8 µM (inactive)
COc1cc(OC)c(-c2cc(=O)c3c(OC)c(OC)c(OC)c(OC)c3o2)cc1OC | > 100 µM (inactive) | > 100 µM (inactive) | 97.5 µM (inactive) | 13.6 µM (inactive) | > 100 µM (inactive) | 8.18 µM (inactive) | > 100 µM (inactive) | > 100 µM (inactive) | 22.2 µM (inactive) | 36.1 µM (inactive) | 88.1 µM (inactive) | > 69.3 µM (inactive) | 28.1 µM (inactive) | 12.7 µM (inactive) | > 28.3 µM (inactive) | 46.8 µM (inactive) | > 100 µM (inactive) | > 100 µM (inactive) | 11.6 µM (inactive) | 19.8 µM (inactive)
CCCN(CCC)C(=S)N/N=C(/C)c1ccccc1O | 4.04 µM (inactive) | 5.25 µM (inactive) | 6.19 µM (inactive) | 3.96 µM (inactive) | 7.28 µM (inactive) | 3.61 µM (inactive) | 3.97 µM (inactive) | 6.7 µM (inactive) | 4.04 µM (inactive) | 8.49 µM (inactive) | 5.94 µM (inactive) | 3.32 µM (inactive) | 6.41 µM (inactive) | 23.6 µM (inactive) | 3.06 µM (inactive) | 5.81 µM (inactive) | 2.94 µM (inactive) | 6.84 µM (inactive) | 15.9 µM (inactive) | 9.4 µM (inactive)
C[As](C)SCC(NC(=O)CCC(N)C(=O)O)C(=O)NCC(=O)O.c1ccncc1 (stereo not given) | 0.198 µM (active) | 0.168 µM (active) | 0.202 µM (active) | 0.0578 µM (active) | 0.421 µM (active) | 0.0938 µM (active) | 0.117 µM (active) | 0.338 µM (active) | 3.51 µM (inactive) | 0.0662 µM (active) | 0.268 µM (active) | 0.0891 µM (active) | 3.23 µM (inactive) | 0.0471 µM (active) | 0.02 µM (active) | 0.0966 µM (active) | 0.22 µM (active) | 0.0867 µM (active) | 0.0843 µM (active) | 0.261 µM (active)
C[C@]1(CO)[C@H]2CC[C@@]34C=C[C@@](CO)(CC[C@H]3[C@]2(C)CC[C@H]1O)C4 | 56.9 µM (inactive) | 56.2 µM (inactive) | > 100 µM (inactive) | 37.4 µM (inactive) | > 100 µM (inactive) | 12.9 µM (inactive) | 31.9 µM (inactive) | > 100 µM (inactive) | 8.93 µM (inactive) | 30.9 µM (inactive) | 44.3 µM (inactive) | 43.9 µM (inactive) | 57.9 µM (inactive) | 36.9 µM (inactive) | 24.3 µM (inactive) | 12.9 µM (inactive) | 73.6 µM (inactive) | 42.2 µM (inactive) | > 100 µM (inactive) | 28.2 µM (inactive)
Cc1c(S(=O)(=O)/N=C(\NN)Nc2ccc(Cl)cc2)sc2ccc(Cl)cc12 | 13.3 µM (inactive) | 16.7 µM (inactive) | 17 µM (inactive) | 32.4 µM (inactive) | 20.6 µM (inactive) | 10.2 µM (inactive) | 16.3 µM (inactive) | 16.3 µM (inactive) | 13.1 µM (inactive) | 19 µM (inactive) | 15.5 µM (inactive) | 17.5 µM (inactive) | 17.9 µM (inactive) | 11.1 µM (inactive) | 22.2 µM (inactive) | 17.1 µM (inactive) | 20.5 µM (inactive) | 16.9 µM (inactive) | 15.1 µM (inactive) | 16.5 µM (inactive)
CC(=O)N1C2=CCCC2(C)c2ccccc21 (stereo not given) | 37.1 µM (inactive) | > 100 µM (inactive) | > 100 µM (inactive) | 23.7 µM (inactive) | > 100 µM (inactive) | 79.3 µM (inactive) | > 100 µM (inactive) | > 100 µM (inactive) | 62.8 µM (inactive) | > 100 µM (inactive) | 52.4 µM (inactive) | > 100 µM (inactive) | > 100 µM (inactive) | > 100 µM (inactive) | > 100 µM (inactive) | 41.1 µM (inactive) | > 100 µM (inactive) | > 100 µM (inactive) | 26.9 µM (inactive) | > 100 µM (inactive)
CCOc1cc(NC(C)=O)ccc1C(=O)NN1C(=O)C(Cl)C1c1ccc(O)c(OC)c1 (stereo not given) | 18.2 µM (inactive) | 8.83 µM (inactive) | 3.08 µM (inactive) | 15.7 µM (inactive) | 16.9 µM (inactive) | 12.2 µM (inactive) | 16.6 µM (inactive) | 14.8 µM (inactive) | 5.3 µM (inactive) | 16.5 µM (inactive) | 14.1 µM (inactive) | 13.1 µM (inactive) | 21.3 µM (inactive) | 12 µM (inactive) | 4.52 µM (inactive) | 10.4 µM (inactive) | 11.8 µM (inactive) | 15.6 µM (inactive) | 16.4 µM (inactive) | 13.3 µM (inactive)
O=C1NC(N2CCCC(CO)C2)=N/C1=C\c1ccc(O)cc1 (stereo not given) | > 100 µM (inactive) | > 100 µM (inactive) | > 100 µM (inactive) | > 100 µM (inactive) | > 100 µM (inactive) | 42 µM (inactive) | > 100 µM (inactive) | > 100 µM (inactive) | > 100 µM (inactive) | > 100 µM (inactive) | > 100 µM (inactive) | > 100 µM (inactive) | > 100 µM (inactive) | > 100 µM (inactive) | > 100 µM (inactive) | > 100 µM (inactive) | > 100 µM (inactive) | > 100 µM (inactive) | > 100 µM (inactive) | > 100 µM (inactive)
COC(=O)c1c(O)ccc2c1C1(Cc3ccccc3C1=O)C(O)O2 (stereo not given) | 15.6 µM (inactive) | 5.09 µM (inactive) | 24.3 µM (inactive) | 4.02 µM (inactive) | 36.9 µM (inactive) | 18.2 µM (inactive) | 14.9 µM (inactive) | 28.3 µM (inactive) | 5.04 µM (inactive) | 16.1 µM (inactive) | 17.2 µM (inactive) | 14.1 µM (inactive) | 42.3 µM (inactive) | 51.5 µM (inactive) | 4.49 µM (inactive) | 34.3 µM (inactive) | 17.3 µM (inactive) | 24.4 µM (inactive) | 16.6 µM (inactive) | 17.3 µM (inactive)
